According to US20050020692A1, “Treatment of heaves” (priority 2003, published 2005):
Structures can show the parent of a compound that is named as a salt. Where two headings read alike, the source gives them in different places.

Columns and labels:
[1] = test system: Antigen-specific T-cell lines; test: Antigen-specific T-cell lines: proliferation, apoptosis, cytokine secretion; format: cell-based, human
Procedure: Parallel lines were generated in the presence of propranolol. Cells were evaluated for proliferation, apoptosis, and cytokine secretion.

[2] = test system: adrenergic β-2 receptors; test: cAMP production in human PC3 cells; settings: PC-3, read-out: EC50 for cAMP production
[3] = format: physicochemical
Description: The chemical and optical purities of all batches used for biological studies have been >98%. […] No polymorphs have been detected.

[4] = test system: isolated guinea pig tracheas; test: Inhibition of airway smooth muscle contractions, isolated guinea pig tracheas; settings: Cavia porcellus, read-out: pD2 (converted)
Procedure: The following study was performed in vitro, using isolated guinea pig tracheas. The airway smooth muscle tissues were contracted by carbachol or ovalbumin or histamine. […] Results: pD2 Values of the Enantiomers of Albuterol

[5] = test system: equine bronchial smooth muscle; test: Carbachol-induced contractions of equine bronchial smooth muscle (hyperreactivity); parameters: species or system horse; settings: 37° C.
Procedure: In this study, segments of equine bronchial smooth muscle are mounted on special holders and immersed in a physiologic solution containing glucose and aerated with 95% O2 and 5% CO2 at 37° C. Isometric tension is measured with force transducers and registered electronically. The effects of R-, RS- and S-albuterol on carbachol-induced contractions are studied.

[6] = test system: isolated human leukocytes (buffy coat); test: A23187-stimulated histamine release from isolated human leukocytes; format: cell-based; settings: for inhibition of release of the marker inflammatory mediator histamine: A23187 5 μM, 20 min/37° C., 4×10^−4 M to 10^−6 M
Procedure: In this study, histamine was the marker compound for inflammatory mediators that are released from pro-inflammatory cells. The inhibition of stimulated histamine release from isolated human leukocytes (buffy coat) by test articles was studied. The method is a modification of the methodology described by Nolte et al. (1988). Leukocytes were obtained from healthy volunteers and inflammatory mediator release was induced by incubation (20 min/37° C.) with the Ca-ionophore A23187 (5 μM) in the presence or absence of a test article. Histamine was analyzed by enzyme-immuno assays (E.I.A.), using commercially available kits and a microplate reader (MRX, Dynatech). The test articles were tested in each assay at five concentrations ranging from 4×10^−4 M to 10^−6 M, in duplicate. In the same experiment, a reference compound was tested in duplicate at eight concentrations to obtain an inhibition curve to validate the experiment (not shown here). Results: […]

[7] = test system: M-form phenolsulfotransferase (M-PST); test: Sulfotransferase activity in horse liver cytosol / intestinal mucosa; format: in vitro ADME
Procedure: Method: The livers from recently slaughtered horses are homogenized and the cytosol is prepared by differential centrifugation. The protein concentration of the cytosolic preparation is determined by the Lowry method (Lowry O. H. et al.: Protein measurement with the foline phenol reagent. J. Biol. Chem. 1951, 193: 265-275). […] Cytosol from the livers is incubated at 15 °C. After removal of unmetabolized beta-2 agonist with ethyl acetate, free drug is released from the conjugate using sulfatase. The concentrations of beta-2 agonist enantiomers are analyzed by chiral HPLC assay.
Results from tests with intestinal mucosa yielded the same surprising results.

[8] = horse
[9] = test system: pro-inflammatory cells; settings: cited from earlier work
[10] = contractile stimulus Carbachol (10^-6 M)
[11] = contractile stimulus Histamine (10^-5 M)
[12] = contractile stimulus Ovalbumin (10-5 g/ml)

| Structure (SMILES) | EC50 [2] | solubility in water [3] | EC50 [4, 10] | EC50 [4, 11] | EC50 [4, 12] | effect on equine bronchial smooth muscle [5] | inhibition of release of the marker inflammatory mediator histamine [6] | further results |
| --- | --- | --- | --- | --- | --- | --- | --- | --- |
| CC(C)(C)NCC(O)c1ccc(O)c(CO)c1 (racemic) [RS-albuterol] | 207 nM |  |  |  |  |  |  | influence on proliferation [1]: minimal influences; cytokine production ([1]; 10(−8) mol/L each isomer): no influence |
| CC(C)(C)NC[C@H](O)c1ccc(O)c(CO)c1.Cl [R(−)-albuterol hydrochloride] |  | readily soluble |  |  |  |  |  |  |
| CC(C)(C)NC[C@H](O)c1ccc(O)c(CO)c1.CC(C)(C)NC[C@H](O)c1ccc(O)c(CO)c1.O=S(=O)(O)O [R(−)-albuterol sulfate] |  | readily soluble |  |  |  |  |  |  |
| CC(C)(C)NC[C@H](O)c1ccc(O)c(CO)c1 [R(−)-albuterol, (R)-[…]^1-[[(1,1-dimethylethyl)amino]methyl]-4-hydroxy-1,3-benzene-dimethanol, sulfate (2:1) (salt)] | 100 nM |  | 79.4 nM | 20 nM | 5.01 nM | causing bronchorelaxation | Neither R(−)-albuterol nor S(+)-albuterol inhibited the release | T-cell proliferation ([1]; 10(−7) mol/L, % of control): 61.1%±9.0%; IL-2 and IFN-gamma production ([1]; 10(−8) mol/L): inhibited; T-cell proliferation ([1]; 10(−8) mol/L): 77.0%±9.7%; intestinal or hepatic metabolism by M-form phenolsulfotransferase [7]: not to undergo intestinal or hepatic metabolism; inversion to S-albuterol [8]: no such inversion takes place |
| CC(C)(C)NC[C@@H](O)c1ccc(O)c(CO)c1 [S(+)-albuterol] | 14000 nM |  | 79400 nM | 5010 nM | 31600 nM | causing bronchial hyperreactivity | Neither R(−)-albuterol nor S(+)-albuterol inhibited the release | increase of release of histamine from leukocytes ([6]; at concentrations of 10 μM and higher): significantly and dose-dependently increased the release; influence on T-cell proliferation ([1]; S(+)-albuterol alone): No influence was observed; facilitation of release of inflammatory mediators [9]: facilitating the release |
